The target of experiment [1] is GDP-bound NRAS wild-type protein (Homo sapiens, UniProt P01111). The experiment in a line: Binding to NRAS by surface plasmon resonance (SPR), Single Cycle Kinetics.
In experiment [2] the target is GDP-bound HRAS wild-type protein (Homo sapiens, UniProt P01112). The experiment in a line: Binding to HRAS by surface plasmon resonance (SPR), Single Cycle Kinetics.

Structures are written as SMILES. Where a SMILES comes first, the peptide text is derived from it. Bridges are numbered along the chain shown (N, C = ends). [ ]: non-standard residue; d: D form. The star is where a group is joined. hPhe(3-Cl-4-CF3) = N[C@@H](CCc1ccc(C(F)(F)F)c(Cl)c1)C(=O)O; NPrPhe(4-CF3) = CCCN[C@@H](Cc1ccc(C(F)(F)F)cc1)C(=O)O; NMeGly(cPent) = CN[C@H](C(=O)O)C1CCCC1; NMeD = CN[C@@H](CC(=O)O)C(=O)O; NMeL = CN[C@@H](CC(C)C)C(=O)O; Morpholide = C1CN(*)CCO1; NMeA = CN[C@@H](C)C(=O)O; Aze = O=C(O)[C@@H]1CCN1; Aib = CC(C)(N)C(=O)O; Sar = CNCC(=O)O

GDP-bound NRAS wild-type protein, sequence (P01111 whole entry): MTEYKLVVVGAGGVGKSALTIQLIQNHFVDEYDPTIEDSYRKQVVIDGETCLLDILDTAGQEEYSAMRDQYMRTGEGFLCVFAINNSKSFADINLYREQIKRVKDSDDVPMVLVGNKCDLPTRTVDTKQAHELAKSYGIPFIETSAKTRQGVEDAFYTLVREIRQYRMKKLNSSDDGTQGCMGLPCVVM
GDP-bound HRAS wild-type protein, sequence (P01112 whole entry): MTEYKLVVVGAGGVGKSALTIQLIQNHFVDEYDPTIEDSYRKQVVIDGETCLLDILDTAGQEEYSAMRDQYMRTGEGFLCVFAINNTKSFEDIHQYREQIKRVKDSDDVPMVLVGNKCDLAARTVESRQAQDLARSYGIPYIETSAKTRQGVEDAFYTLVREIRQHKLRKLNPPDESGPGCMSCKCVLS

On to `CCOC[C@H]1C(=O)N[C@@H]([C@@H](C)CC)C(=O)N(C)CC(=O)N(C)[C@H]2C/C=C\CCN(C2=O)[C@@H](CC2CCCCC2)C(=O)N(C)CC(=O)N[C@@H](CCc2ccc(C(F)(F)F)c(OC)c2)C(=O)N2C[C@@H](C)C[C@H]2C(=O)N(C)C2(CCC2)C(=O)N(C)[C@@H](C2CCCC2)C(=O)N(C)[C@H](C(=O)N(C)C)CC(=O)N1C` [PP2371], for which the “NRAS/KRAS (ratio of KD value with respect to NRAS to KD value with respect to KRAS)” value in experiment [1] (SPR, GDP-bound NRAS wild-type vs GDP-bound KRAS wild-type) is “A (a compound having 10 or more and less than 20 is denoted as A)”. Moreover, the “HRAS/KRAS (ratio of KD value with respect to HRAS to KD value with respect to KRAS)” value in experiment [2] (SPR, GDP-bound HRAS wild-type vs GDP-bound KRAS wild-type) is “B (a compound having 3 or more and less than 10 is denoted as B)”.

Take `CCC(CC)[C@H]1C(=O)N(C)[C@H](C(=O)N(C)C)CC(=O)N(C)[C@@H](COC)C(=O)N[C@@H]([C@@H](C)CC)C(=O)N(C)CC(=O)N(C)[C@H]2C/C=C\CCN(C2=O)[C@@H](Cc2ccc(C(F)(F)F)cc2)C(=O)N(C)CC(=O)N[C@@H](CCc2cc(F)c(C(F)(F)F)c(F)c2)C(=O)N2CCCC[C@H]2C(=O)NC2(CC(C)(C)C2)C(=O)N1C` [PP2916]: in experiment [1] (KD ratio NRAS/KRAS, class symbols), the “NRAS/KRAS (ratio of KD value with respect to GDP-bound NRAS wild-type protein to KD value with respect to KRAS)” value is “A (a compound having 10 or more and less than 20 is denoted as A)”. The “HRAS/KRAS (ratio of KD value with respect to GDP-bound HRAS wild-type protein to KD value with respect to KRAS)” value in experiment [2] (KD ratio HRAS/KRAS, class symbols) was “A (a compound having 10 or more and less than 20 is denoted as A)”.

Turning to `CCO[C@@H]1C[C@H]2C(=O)NC3(CCC3)C(=O)N(C)[C@@H](C3CCCC3)C(=O)N(C)[C@H](C(=O)N(C)C)CC(=O)N(C)[C@@H](CC)C(=O)N[C@@H]([C@@H](C)CC)C(=O)N(C)CC(=O)N(C)[C@H]3CCCCCN(C3=O)[C@@H](Cc3ccc(C(F)(F)F)cc3)C(=O)N(C)CC(=O)N[C@@H](CCc3cc(F)c(C(F)(F)F)c(F)c3)C(=O)N2C1` [PP0663], the “NRAS/KRAS (ratio of KD value with respect to GDP-bound NRAS wild-type protein to KD value with respect to KRAS)” value in experiment [1] (KD ratio NRAS/KRAS, SPR) is “B (a compound having 3 or more and less than 10 is denoted as B)”. In experiment [2] (KD ratio HRAS/KRAS, SPR), the “HRAS/KRAS (ratio of KD value with respect to GDP-bound HRAS wild-type protein to KD value with respect to KRAS)” value was “B (a compound having 3 or more and less than 10 is denoted as B)”.

As for `CCCN1C(=O)[C@@H]2CCN2C(=O)[C@H](C)N(C)C(=O)[C@H]([C@@H](C)CC)NC(=O)[C@H](CC(C)C)N(C)C(=O)C[C@@H](C(=O)N2CCOCC2)N(C)C(=O)[C@H](C2CCCC2)N(C)C(=O)C(C)(C)NC(=O)[C@@H]2CCCN2C(=O)[C@H](CCc2ccc(C(F)(F)F)c(Cl)c2)NC(=O)CN(C)C(=O)[C@@H]1Cc1ccc(C(F)(F)F)cc1` [PP0225] ([NMeL]I[NMeA][Aze][NPrPhe(4-CF3)][Sar][hPhe(3-Cl-4-CF3)]P[Aib][NMeGly(cPent)][NMeD]-Morpholide; lactam N-11), the “NRAS/KRAS (ratio of KD for GDP-bound NRAS wild-type to KD for KRAS)” value in experiment [1] (KD ratio NRAS/KRAS, SPR) is “C (A compound having a KD ratio of 0.1 or more and less than 3 is denoted as C)”. Also, the “HRAS/KRAS (ratio of KD for GDP-bound HRAS wild-type to KD for KRAS)” value in experiment [2] (KD ratio HRAS/KRAS, SPR) was “C (A compound having a KD ratio of 0.1 or more and less than 3 is denoted as C)”.

Take `CC[C@H](C)[C@@H]1NC(=O)[C@H](CC(C)C)N(C)C(=O)C[C@@H](C(=O)N2CCOCC2)N(C)C(=O)[C@H](C2CCCC2)N(C)C(=O)C2(CCCC2)NC(=O)[C@@H]2CCCN2C(=O)[C@H](CCc2cc(F)c(C(F)(F)F)c(F)c2)NC(=O)CN(C)C(=O)[C@H](Cc2ccc(C(F)(F)F)cc2)N2CCCCC[C@@H](C2=O)N(C)C(=O)CN(C)C1=O` [PP0490]: the “NRAS/KRAS (ratio of KD value with respect to GDP-bound NRAS wild-type protein to KD value with respect to KRAS)” value in experiment [1] (KD ratio NRAS/KRAS, SPR) was “B (a compound having 3 or more and less than 10 is denoted as B)”. The “HRAS/KRAS (ratio of KD value with respect to GDP-bound HRAS wild-type protein to KD value with respect to KRAS)” value in experiment [2] (KD ratio HRAS/KRAS, SPR) is “B (a compound having 3 or more and less than 10 is denoted as B)”.

As to `CC[C@H](C)[C@@H]1NC(=O)[C@@H]2CCCCCc3ccc(cc3)C[C@@H](C(=O)N(C)CC(=O)N[C@@H](CCc3ccc(C(F)(F)F)c(OC)c3)C(=O)N3C[C@H](OC(C)C)C[C@H]3C(=O)NC3(CC(C)(C)C3)C(=O)N(C)[C@@H](C3CCCC3)C(=O)N(C)[C@H](C(=O)N(C)C)CC(=O)N2C)N2CC/C=C\C[C@@H](C2=O)N(C)C(=O)CN(C)C1=O` [PP3072], the “NRAS/KRAS (ratio of KD value with respect to GDP-bound NRAS wild-type protein to KD value with respect to KRAS)” value in experiment [1] (KD ratio NRAS/KRAS, SPR, GDP-bound wild-type proteins) was “A (a compound having 10 or more and less than 20 is denoted as A)”. Besides, the “HRAS/KRAS (ratio of KD value with respect to GDP-bound HRAS wild-type protein to KD value with respect to KRAS)” value in experiment [2] (KD ratio HRAS/KRAS, SPR, GDP-bound wild-type proteins) is “B (a compound having 3 or more and less than 10 is denoted as B)”.

On to `CCCN(C)C(=O)[C@@H]1CC(=O)N(C)[C@@H](COC)C(=O)N[C@@H]([C@@H](C)CC)C(=O)N(C)CC(=O)N(C)[C@H]2C/C=C\CCN(C2=O)[C@@H](Cc2ccc(C(F)(F)F)cc2)C(=O)N(C)CC(=O)N[C@@H](CCc2cc(F)c(C(F)(F)F)c(F)c2)C(=O)N2C[C@H](F)C[C@H]2C(=O)NC2(CC(C)(C)C2)C(=O)N(C)[C@@H](C2CCCC2)C(=O)N1C` [PP1696], for which, in experiment [1] (KD ratio, GDP-bound NRAS wild-type vs GDP-bound KRAS wild-type, SPR), the “NRAS/KRAS (ratio of KD value for NRAS to KD value for KRAS)” value is listed as “AA (a compound having 20 or more is denoted as AA)”. The “HRAS/KRAS (ratio of KD value for HRAS to KD value for KRAS)” value in experiment [2] (KD ratio, GDP-bound HRAS wild-type vs GDP-bound KRAS wild-type, SPR) is “A (a compound having 10 or more and less than 20 is denoted as A)”.

The values above are taken from patent US20250230193A1, “CYCLIC COMPOUND HAVING SELECTIVE KRAS INHIBITORY EFFECT ON HRAS AND NRAS” (CHUGAI SEIYAKU KABUSHIKI KAISHA, priority 2022, published 2025).
